Like-named read-outs stand apart in the source and are kept apart here.
Legend:
[1] = target: EcIMPDH-S250A/L444Y (Escherichia coli, UniProt P0ADG7, L444Y/S250A); assay: biochemical
[2] = target: T1, HpIMPDH (Helicobacter pylori, UniProt P56088); assay: IMPDH inhibition, H. pylori enzyme; format: biochemical
T1 sequence (P56088 1-481): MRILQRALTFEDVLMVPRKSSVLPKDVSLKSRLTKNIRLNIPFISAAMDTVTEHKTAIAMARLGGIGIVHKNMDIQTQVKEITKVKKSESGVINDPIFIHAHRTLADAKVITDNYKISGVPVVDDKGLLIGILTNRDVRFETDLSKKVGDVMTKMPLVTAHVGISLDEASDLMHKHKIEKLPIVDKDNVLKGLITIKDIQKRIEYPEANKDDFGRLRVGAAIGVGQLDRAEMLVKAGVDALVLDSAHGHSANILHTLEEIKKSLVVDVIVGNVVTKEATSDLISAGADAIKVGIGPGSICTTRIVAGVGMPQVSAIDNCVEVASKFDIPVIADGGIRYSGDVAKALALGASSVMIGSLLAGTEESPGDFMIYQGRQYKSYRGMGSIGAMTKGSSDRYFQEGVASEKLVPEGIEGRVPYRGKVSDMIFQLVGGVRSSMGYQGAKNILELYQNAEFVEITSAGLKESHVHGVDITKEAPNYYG

[3] = target: LdIMPDH (Leishmania donovani, UniProt P21620); assay: IMPDH inhibition, L. donovani enzyme; format: biochemical
[4] = target: EcIMPDH (Escherichia coli, UniProt P0ADG7); assay: IMPDH inhibition, E. coli enzyme; format: biochemical
[5] = target: T2, CpIMPDH (Cryptosporidium parvum, UniProt Q8T6T2); conditions: cited from earlier work
T2 sequence (Q8T6T2 1-400): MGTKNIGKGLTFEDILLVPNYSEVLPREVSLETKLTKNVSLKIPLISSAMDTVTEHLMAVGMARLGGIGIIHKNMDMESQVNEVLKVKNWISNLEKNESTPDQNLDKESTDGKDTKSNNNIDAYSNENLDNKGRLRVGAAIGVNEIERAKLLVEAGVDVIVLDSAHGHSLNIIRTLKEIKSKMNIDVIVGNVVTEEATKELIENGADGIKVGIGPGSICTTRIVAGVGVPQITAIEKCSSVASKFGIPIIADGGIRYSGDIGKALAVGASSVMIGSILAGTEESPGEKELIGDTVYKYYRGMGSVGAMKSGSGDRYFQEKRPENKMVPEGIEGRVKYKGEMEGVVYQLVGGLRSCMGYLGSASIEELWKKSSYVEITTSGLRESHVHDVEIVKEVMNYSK

[6] = target: T3, BbIMPDH (Borreliella burgdorferi, UniProt P49058); assay: IMPDH inhibition, B. burgdorferi enzyme; format: biochemical
T3 sequence (P49058 1-404): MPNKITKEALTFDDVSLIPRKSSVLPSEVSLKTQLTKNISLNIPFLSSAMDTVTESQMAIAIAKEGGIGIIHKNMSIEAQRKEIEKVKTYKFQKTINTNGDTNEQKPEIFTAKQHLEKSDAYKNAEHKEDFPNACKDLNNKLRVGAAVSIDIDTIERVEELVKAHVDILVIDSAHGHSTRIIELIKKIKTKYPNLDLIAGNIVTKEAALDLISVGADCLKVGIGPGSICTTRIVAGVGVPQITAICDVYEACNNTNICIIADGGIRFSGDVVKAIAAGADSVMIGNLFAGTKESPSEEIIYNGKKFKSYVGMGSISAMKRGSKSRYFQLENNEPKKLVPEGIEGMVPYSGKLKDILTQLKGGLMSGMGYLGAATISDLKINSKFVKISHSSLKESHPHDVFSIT

[7] = target: SpIMPDH (Streptococcus pyogenes, UniProt P0C0H6); assay: biochemical
[8] = target: TfIMPDH (Tritrichomonas foetus, UniProt P50097); conditions: cited from earlier work; for Ki: TfIMPDH, ref Riera, et al., 2008
[9] = target: EcIMPDH-S250A (Escherichia coli, UniProt P0ADG7, S250A); assay: biochemical
Sequence of EcIMPDH-S250A (P0ADG7 whole entry S250A): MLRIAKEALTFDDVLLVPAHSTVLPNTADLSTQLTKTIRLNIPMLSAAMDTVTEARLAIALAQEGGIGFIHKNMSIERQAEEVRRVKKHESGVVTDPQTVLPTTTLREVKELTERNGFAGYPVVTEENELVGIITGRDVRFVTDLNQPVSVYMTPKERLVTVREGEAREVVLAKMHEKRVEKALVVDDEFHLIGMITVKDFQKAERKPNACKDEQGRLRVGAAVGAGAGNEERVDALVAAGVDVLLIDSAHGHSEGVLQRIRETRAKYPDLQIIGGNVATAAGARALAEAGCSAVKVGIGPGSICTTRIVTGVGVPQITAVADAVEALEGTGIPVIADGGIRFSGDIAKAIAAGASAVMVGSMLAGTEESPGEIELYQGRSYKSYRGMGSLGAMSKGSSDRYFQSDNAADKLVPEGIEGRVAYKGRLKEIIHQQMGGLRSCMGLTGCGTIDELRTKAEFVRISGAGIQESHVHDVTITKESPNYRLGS

Sequence of TfIMPDH (P50097 whole entry): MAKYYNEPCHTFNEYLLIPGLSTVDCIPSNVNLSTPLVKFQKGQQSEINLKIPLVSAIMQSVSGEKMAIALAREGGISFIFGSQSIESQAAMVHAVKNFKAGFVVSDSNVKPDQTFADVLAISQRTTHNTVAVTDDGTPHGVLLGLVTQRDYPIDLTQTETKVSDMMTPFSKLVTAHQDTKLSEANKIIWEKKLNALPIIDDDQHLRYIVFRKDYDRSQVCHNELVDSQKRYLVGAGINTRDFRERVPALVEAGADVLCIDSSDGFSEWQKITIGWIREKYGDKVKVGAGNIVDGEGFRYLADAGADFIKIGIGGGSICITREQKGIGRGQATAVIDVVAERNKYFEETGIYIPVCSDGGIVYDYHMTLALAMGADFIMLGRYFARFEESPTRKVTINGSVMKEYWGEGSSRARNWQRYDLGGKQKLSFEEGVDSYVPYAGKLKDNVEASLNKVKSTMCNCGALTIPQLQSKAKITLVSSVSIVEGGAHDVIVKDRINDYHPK
Sequence of LdIMPDH (P21620 whole entry): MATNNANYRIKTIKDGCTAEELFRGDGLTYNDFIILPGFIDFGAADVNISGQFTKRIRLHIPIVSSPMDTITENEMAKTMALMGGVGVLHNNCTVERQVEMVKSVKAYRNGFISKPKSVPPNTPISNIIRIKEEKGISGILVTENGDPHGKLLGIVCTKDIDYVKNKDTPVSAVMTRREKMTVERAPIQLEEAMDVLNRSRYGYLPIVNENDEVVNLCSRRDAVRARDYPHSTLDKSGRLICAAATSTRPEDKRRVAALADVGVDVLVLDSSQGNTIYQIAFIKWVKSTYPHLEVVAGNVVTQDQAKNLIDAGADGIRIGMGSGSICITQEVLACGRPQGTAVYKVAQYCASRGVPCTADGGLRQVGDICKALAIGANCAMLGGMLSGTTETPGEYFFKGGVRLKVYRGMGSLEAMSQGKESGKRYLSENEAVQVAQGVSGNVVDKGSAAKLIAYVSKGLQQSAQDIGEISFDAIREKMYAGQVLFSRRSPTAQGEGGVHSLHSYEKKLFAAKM
Sequence of EcIMPDH-S250A/L444Y (P0ADG7 whole entry S250A/L444Y): as the sequence (P0ADG7 whole entry S250A) above, with L444Y counted along it
Sequence of EcIMPDH (P0ADG7 whole entry): as the sequence (P0ADG7 whole entry S250A) above, with A250S counted along it
Sequence of SpIMPDH (P0C0H6 whole entry): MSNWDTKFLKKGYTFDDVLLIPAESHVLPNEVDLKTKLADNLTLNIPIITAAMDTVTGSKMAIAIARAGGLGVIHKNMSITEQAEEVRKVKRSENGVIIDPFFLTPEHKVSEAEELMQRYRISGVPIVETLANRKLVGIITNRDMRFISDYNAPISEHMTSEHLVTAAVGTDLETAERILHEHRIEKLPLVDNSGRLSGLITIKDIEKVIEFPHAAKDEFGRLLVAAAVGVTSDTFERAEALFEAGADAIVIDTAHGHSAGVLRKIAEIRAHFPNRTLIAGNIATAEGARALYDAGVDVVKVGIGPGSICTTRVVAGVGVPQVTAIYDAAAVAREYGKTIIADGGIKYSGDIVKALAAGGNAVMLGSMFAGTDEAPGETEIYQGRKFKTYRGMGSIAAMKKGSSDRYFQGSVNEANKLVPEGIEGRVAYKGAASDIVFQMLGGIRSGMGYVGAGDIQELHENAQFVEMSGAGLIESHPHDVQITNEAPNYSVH

**Q.** What does the source list for `Nc1ncnc2c1ncn2[C@@H]1O[C@H](COP(=O)(O)OP(=O)(O)O)[C@@H](O)[C@H]1O` [ADP]?
**A.** Ki ([1]; read-out: Ki ADP, EcIMPDH-S250A/L444Y): 4.1 ± 0.7 mM; Ki ([2]; read-out: Ki ADP, HpIMPDH): 6 ± 0.5 mM; Ki ([3]; read-out: Ki ADP, LdIMPDH): 15 ± 2 mM; Ki ([4]; read-out: Ki ADP, EcIMPDH): 10 ± 2 mM; Ki ([5]; read-out: Ki ADP, ref Riera, et al., 2008): 42 ± 6 mM; Ki ([6]; read-out: Ki ADP, BbIMPDH): 7.4 ± 0.6 mM; Ki ([7]; read-out: Ki ADP, SpIMPDH): 13 ± 2 mM; Ki ([8]; read-out: Ki ADP): 31 ± 2 mM; Ki ([9]; read-out: Ki ADP, EcIMPDH-S250A): 0.1 ± 0.01 mM

**Q.** What does the source list for `NC(=O)c1csc([C@@H]2O[C@H](CO)[C@@H](O)[C@H]2O)n1` [Tzf, tiazofurin]?
**A.** Ki [1]: 1.1 ± 0.2 mM; Ki [2]: 1.3 ± 0.1 mM; Ki [3]: 8.3 ± 0.7 mM; Ki [4]: 5.3 ± 0.6 mM; Ki ([5]; read-out: Ki Tzf, ref Riera, et al., 2008): 1.5 ± 0.1 mM; Ki [6]: 1.1 ± 0.2 mM; Ki [7]: 8 ± 1 mM; Ki ([8]; read-out: Ki Tzf): 69 ± 9 mM; Ki [9]: 2.5 ± 0.3 mM

**Q.** For `COc1c(C)c2c(c(O)c1C/C=C(\C)CCC(=O)O)C(=O)OC2` [mycophenolic acid], which “Fold more resistant than human IMPDH2 (TfIMPDH)” value ([8]; TfIMPDH vs human IMPDH2, ref Digits and Hedstrom, 2000) is on record?
**A.** 400 fold

Source: PMC2991053 (Chemistry & biology, 2010)
